Assay results published in ChEMBL document CHEMBL1201862, “PubChem BioAssay data set” (2004).
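In this assay, cells in 96-well plates receive the compound at five concentrations for 48 hours. Endpoints are linearly interpolated between the surrounding concentrations. GI50 marks 50% less growth.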 The source made the active and inactive calls. Cut-off read from the data, not from the text of the source: active = GI50 up to about 1.1 µM and inactive = higher.

Columns and labels:
Test in all cases: growth of human tumour cells (NCI), 48 h
[1] = tested on: TK-10
[2] = tested on: SK-OV-3
[3] = tested on: HCT-116
[4] = tested on: NCI/ADR-RES
[5] = tested on: A549
[6] = tested on: ACHN
[7] = tested on: SNB-19
[8] = tested on: MCF7
[9] = tested on: SW-620
[10] = tested on: NCI-H460
[11] = tested on: NCI-H23
[12] = tested on: BT-549
[13] = tested on: KM12
[14] = tested on: SK-MEL-5
[15] = tested on: OVCAR-3
[16] = tested on: RPMI-8226
[17] = tested on: NCI-H522
[18] = tested on: UACC-62
[19] = tested on: SN12C
[20] = tested on: U-251
[21] = tested on: OVCAR-5
[22] = tested on: MDA-MB-231
[23] = tested on: HOP-92
[24] = tested on: PC-3
[25] = tested on: CCRF-CEM
[26] = tested on: SK-MEL-2
[27] = tested on: SF-295
[28] = tested on: OVCAR-4
[29] = tested on: SF-268
[30] = tested on: SF-539
[31] = tested on: COLO 205
[32] = tested on: HT-29
[33] = tested on: EKVX
[34] = tested on: HL-60
[35] = tested on: MDA-MB-435
[36] = tested on: MOLT-4
[37] = tested on: SR
[38] = tested on: K562
[39] = tested on: HCT-15
[40] = tested on: A498
[41] = tested on: 786-0
[42] = tested on: LOX IMVI
[43] = tested on: Hs-578T
[44] = tested on: M14
[45] = tested on: OVCAR-8
[46] = tested on: DU-145
[47] = tested on: HOP-62
[48] = tested on: IGROV-1
[49] = tested on: UO-31
[50] = tested on: CAKI-1
[51] = tested on: UACC-257
[52] = tested on: RXF 393
[53] = tested on: NCI-H226
[54] = tested on: SK-MEL-28
[55] = tested on: Malme-3M
[56] = tested on: MDA-N
[57] = tested on: T47D
[58] = tested on: SNB-75
[59] = tested on: HCC 2998

For COc1cc(Br)cc2cc(-c3cn4c(n3)sc3ccccc34)c(=O)oc12, the GI50 [1] was 45.4 µM (inactive), the GI50 [2] was 30.1 µM (inactive) and the GI50 [3] was 21.3 µM (inactive). For the same molecule, the GI50 [4] was 30.7 µM (inactive), the GI50 [5] was 36.5 µM (inactive) and the GI50 [6] was 32 µM (inactive). For the same molecule, the GI50 [7] was 32.7 µM (inactive), the GI50 [8] was 35.6 µM (inactive) and the GI50 [9] was 20.8 µM (inactive). For the same molecule, the GI50 [10] was 33.7 µM (inactive), the GI50 [11] was 21.2 µM (inactive) and the GI50 [12] was 24.3 µM (inactive). The GI50 [13] was 30.4 µM (inactive), the GI50 [14] was 28.4 µM (inactive) and the GI50 [15] was 20 µM (inactive). The GI50 [16] was 21.6 µM (inactive), the GI50 [17] was 14.5 µM (inactive) and the GI50 [18] was 22.6 µM (inactive). The GI50 [19] was 24.7 µM (inactive), the GI50 [20] was 25.2 µM (inactive) and the GI50 [21] was 39 µM (inactive). For the same molecule, the GI50 [22] was 21.2 µM (inactive), the GI50 [23] was 14.7 µM (inactive) and the GI50 [24] was 16.3 µM (inactive). The GI50 [25] was 20.4 µM (inactive), the GI50 [26] was 22.3 µM (inactive) and the GI50 [27] was 19.8 µM (inactive). The GI50 [28] was 26.1 µM (inactive), the GI50 [29] was 20 µM (inactive) and the GI50 [30] was 30.9 µM (inactive). The GI50 [31] was 38.7 µM (inactive), the GI50 [32] was 29.5 µM (inactive) and the GI50 [33] was 14.5 µM (inactive). The GI50 [34] was 15.6 µM (inactive), the GI50 [35] was 24.4 µM (inactive) and the GI50 [36] was 20.9 µM (inactive). The GI50 [37] was 21.6 µM (inactive), the GI50 [38] was 13.6 µM (inactive) and the GI50 [39] was 23.6 µM. For the same molecule, the GI50 [40] was 21.2 µM (inactive), the GI50 [41] was 25.1 µM (inactive) and the GI50 [42] was 18.4 µM (inactive). The GI50 [43] was 15.6 µM (inactive), the GI50 [44] was 24.4 µM (inactive) and the GI50 [45] was 28.6 µM (inactive). The GI50 [46] was 17.7 µM (inactive), the GI50 [47] was 22.7 µM (inactive) and the GI50 [48] was 14.7 µM (inactive). For the same molecule, the GI50 [49] was 18.7 µM (inactive), the GI50 [50] was 22.9 µM (inactive) and the GI50 [51] was 38.5 µM (inactive).

With O=C1CCCCCC1CC(Sc1ccccc1)Sc1ccccc1 (configuration not stated) the GI50 [1] was > 100 µM (inactive), the GI50 [2] was > 100 µM (inactive) and the GI50 [4] was > 100 µM (inactive). The GI50 [5] was 39.8 µM (inactive), the GI50 [6] was > 100 µM (inactive) and the GI50 [7] was > 100 µM (inactive). For the same molecule, the GI50 [8] was 72.3 µM (inactive), the GI50 [9] was 98.2 µM (inactive) and the GI50 [10] was 64.7 µM (inactive). The GI50 [11] was 75.3 µM (inactive), the GI50 [13] was 60.8 µM (inactive) and the GI50 [14] was 52.5 µM (inactive). For the same molecule, the GI50 [15] was 46.9 µM (inactive), the GI50 [16] was 37.6 µM (inactive) and the GI50 [17] was 65.3 µM (inactive). The GI50 [18] was 81.8 µM (inactive), the GI50 [20] was > 100 µM (inactive) and the GI50 [21] was > 100 µM (inactive). For the same molecule, the GI50 [52] was > 100 µM (inactive), the GI50 [22] was > 100 µM (inactive) and the GI50 [53] was > 100 µM (inactive). The GI50 [23] was > 100 µM (inactive), the GI50 [24] was 51.6 µM (inactive) and the GI50 [25] was 25.2 µM (inactive). The GI50 [26] was > 100 µM (inactive), the GI50 [27] was > 100 µM (inactive) and the GI50 [28] was 96.4 µM (inactive). For the same molecule, the GI50 [29] was > 100 µM (inactive), the GI50 [30] was > 100 µM (inactive) and the GI50 [31] was 61.4 µM (inactive). For the same molecule, the GI50 [32] was > 100 µM (inactive), the GI50 [33] was > 100 µM (inactive) and the GI50 [34] was 21 µM (inactive). The GI50 [35] was > 100 µM (inactive), the GI50 [36] was 8.69 µM (inactive) and the GI50 [37] was 32.8 µM (inactive). The GI50 [54] was > 100 µM (inactive), the GI50 [38] was 46.7 µM (inactive) and the GI50 [55] was > 100 µM (inactive). For the same molecule, the GI50 [39] was greater than 100 µM, the GI50 [56] was > 100 µM (inactive) and the GI50 [40] was > 100 µM (inactive). The GI50 [41] was > 100 µM (inactive), the GI50 [57] was 14.4 µM (inactive) and the GI50 [42] was > 100 µM (inactive). For the same molecule, the GI50 [58] was 49.3 µM (inactive), the GI50 [43] was 96.2 µM (inactive) and the GI50 [44] was > 100 µM (inactive). For the same molecule, the GI50 [45] was > 100 µM (inactive), the GI50 [46] was > 100 µM (inactive) and the GI50 [47] was > 100 µM (inactive). For the same molecule, the GI50 [48] was > 100 µM (inactive), the GI50 [59] was > 100 µM (inactive) and the GI50 [49] was 88.5 µM (inactive). The GI50 [50] was > 100 µM (inactive) and the GI50 [51] was 59.8 µM (inactive).
